“Also recorded” adds a separate entry of the source.
Assays:
B16-F0 melanoma = assay: Calcein AM cytotoxicity, B16-F0; format: cell-based; details: Mus musculus, B16F0, 72 h, read-out: IC 50, B16-F0
Source text: One of the parameters used, as the basis for cytotoxicity assays, is the metabolic activity of viable cells. For example, a microtiter assay, which uses the Calcein AM, is now widely used to quantitate cell proliferation and cytotoxicity. For instance, this assay is used in drug screening programs and in chemosensitivity testing. Because only metabolically active cells cleave Calcein AM, these assays detect viable cells exclusively. The quantity of reduced Calcein AM corresponds to the number of vital cells in the culture.
Human T-lymphoblastic leukemia cell line CEM; promyelocytic HL-60 and monocytic U937 leukemias; breast carcinoma cell lines MCF-7, BT549, MDA-MB-231; glioblastoma U87MG cells; cervical carcinoma cells HELA; sarcoma cells U2OS and Saos2; hepatocellular carcinoma HepG2; mouse fibroblasts NIH3T3; mouse immortalized bone marrow macrophages B2.4 and B10A.4; P388D1 and L1210 leukemia; B16 and B16F10 melanomas were used for routine screening of compounds. The cells were maintained in Nunc/Corning 80 cm^2 plastic tissue culture flasks and cultured in cell culture medium (DMEM with 5 g/l glucose, 2 mM glutamine, 100 U/ml penicillin, 100 μg/ml streptomycin, 10% fetal calf serum and sodium bicarbonate).
The cell suspensions that were prepared and diluted according to the particular cell type and the expected target cell density (2.500-30.000 cells per well based on cell growth characteristics) were added by pipette (80 μl) into 96/well microtiter plates. Inoculates were allowed a pre-incubation period of 24 hours at 37° C. and 5% CO2 for stabilisation. Four-fold dilutions of the intended test concentration were added at time zero in 20 μl aliquots to the microtiter plate wells. Usually, test compound was evaluated at six 4-fold dilutions. In routine testing, the highest well concentration was […], but it can be the matter of change dependent on the agent. All drug concentrations were examined in duplicates. Incubations of cells with the test compounds lasted for 72 hours at 37° C., in 5% CO2 atmosphere and 100% humidity. At the end of incubation period, the cells were assayed by using the Calcein AM. Ten microliters of the stock solution were pipetted into each well and incubated further for 1 hours. Fluorescence (FD) was measured with the Labsystem FIA Reader Fluoroscan Ascent (UK). The tumour cell survival (GI50) was calculated using the following equitation: TCS═(FDdrug exposed well/mean FDcontrol wells)×100%. The GI50 value, the drug concentration lethal to 50% of the tumour cells, was calculated from the obtained dose response curves (FIG. 1).

[1] = system: human diploid fibroblasts (HCA cells); assay: Senescence, beta-galactosidase staining of human diploid fibroblasts; format: cell-based
How it was run: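 HCA fibroblasts at passages 25, 45 and 80 were fixed for 5 min at room temperature in 2% formaldehyde/0.2% glutaraldehyde. They were then incubated at 37 °C without CO2 for 1 to 16 hours with X-gal 1 mg/ml, 5 mM ferri- and ferrocyanide and 2 mM MgCl2 in citric/phosphate buffer, pH 6.0. Blue-stained cells were scored.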

[2] = system: Triticum aestivum cv. Hereward leaf tips; assay: Retention of chlorophyll in excised wheat leaf tips; format: in vivo; details: chlorophyll retention at the concentration with highest activity
How it was run: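 Tips of first leaves from 7-day wheat (cv. Hereward) seedlings kept on compound solutions (10^−8 to 10^−4 M, from DMSO stock) for 96 h in the dark at 25 °C. Chlorophyll extracted in 80% ethanol at 80 °C and read at 665 nm. Activity at the best concentration expressed relative to 10^−4 M BAP (100%), five replicates.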

MCF-7 cell line = assay: Apoptosis in MCF-7, Anexin FITC V / propidium iodide staining; format: cell-based, human; details: FIG. 3; 6 h, 20 μM apoptotic cells
Procedure: A MCF-7, apoptotic cells: 6 h, 12, 20 μM, B MCF-7, secondary necrotic cells (i.e. necrosis following apoptosis), 12 h, 12, 40 μM; C MCF-7, necrotic cells, 24 h, 12, 40 μM. Anexin FITC V (Mol. Probes) and propidium iodide staining: anexin—green, PI—red.
Analysed using “Olympus image analysis” after treatment of MCF-7 tumour cells by 6-(2-hydroxy-3-methoxybenzylamino)purine. A,B—control cells without treatment; C,D—apoptotic cells (condensation of chromatin); A,C—fluorescence microscopy; B,D—fluorescence image analysis.

[3] = system: Amaranthus caudatus cotyledon/hypocotyl explants; assay: Amaranthus bioassay, betacyanin content; format: in vivo; details: betacyanin content at the concentration with highest activity
[4] = system: senescent human skin fibroblasts; assay: Actin staining of senescent cells (FITC-Phalloidin); format: cell-based; details: after 3 days; meta 40 μM
Source text: Actin staining: The pattern of cytoskeletal actin staining was studied by staining the cells with florescent ligand FITC-labelled Phalloidin, using a fluorescence microscope

proteasome = assay: Proteasomal chymotrypsin-like activity in cell extracts of treated cells; format: cell-based, human; details: 40, 80 and 200 μM
Procedure: Chymotrypsin-like activity in cell extracts prepared from treated and untreated cells was determined by in vitro degradation of oligopeptides by the proteasome.

human skin fibroblasts [5] = assay: Cell survival, MTT assay; format: cell-based; details: 3 days
Procedure: Cell survival after exposure to various doses was measured with the 3-(4,5 dimethylthiazol-2-yl)-2,5-diphenyltetrazolium bromide (MTT) assay. About 5,000 cells were seeded per well in a 96-well plate 24 h before the experiment. Cells were then treated with various doses of the compound to be tested. The wells were washed in Hank's and new medium was added. After three days, MTT (Sigma, M2128) was added at 0.5 mg/ml in medium. After 4 h, MTT was removed and isopropanol and HCl were added to dissolve the MTT crystals for 12-16 h. The absorbance at 595 nm was measured.

[6] = system: human adult skin fibroblasts; assay: Short-term growth of human skin fibroblasts (cell counts, Giemsa); format: cell-based
Procedure: (§1) All experiments were performed on early and mid passage cultures (about 20 to 40% lifespan completed) of normal human adult skin fibroblast line; designated ASF-2 & Senetek cell line (about 10-90% lifespan completed); designated as SF20. In order to check the effects of test compounds on senescent cells, late passage cells with more than 95% lifespan completed were used. ASF-2 and SF20 cell lines were established from a mammary skin biopsy obtained from a young, non-smoking and healthy […] at the time of breast reduction operation. Normal culture conditions of medium (DMEM) containing antibiotics, 10% foetal calf serum, and incubation at 37° C. with 95% humidity were used. The effects of the test chemicals were determined in the following conditions:
Short-term growth experiments were performed using 24-well tissue culture plates (growth area 1.9 cm^2). Freshly prepared cell suspensions from mass cultures of ASF-2 cells maintained in our labs were used. About 10,000 cells were seeded into 6 sets of 24-well plates. The cells were allowed to attach and stabilize for 24 hr in normal culture medium to achieve various final concentrations (range 40 to 500 μM). Culture medium was changed with the addition of test chemicals twice a week. The numbers of cells were counted after different days of treatment in 2 wells from each concentration of the test chemical, by following the normal method of cell trypsinization and counting using a Coultercounter. The third well in each category was fixed by cold methanol and stained with Giemsa stain for permanent record and for photography. The experiment was carried on for until the cultures became fully confluent and no further growth was possible.

[7] = system: senescent human skin fibroblasts; assay: Numbers of surviving senescent cells (Coulter counter); format: cell-based
Procedure: Equal numbers of senescent cells were seeded in separate flasks and were treated with different concentrations of para-topolin. Cell numbers were determined by using a Coulter counter after trpsinization and resuspension of cells after 7 and 14 days of treatment.
Equal numbers of senescent cells were seeded in separate flasks and were treated with different concentrations of ortho-topolin. Cell numbers were determined by using a Coulter counter after trypsinisation and resuspension of cells, after 7 and 14 days of treatment.

human skin fibroblasts [8] = assay: Cell attachment of human skin fibroblasts; format: cell-based
Procedure: as §1, with “conditions: […]” for “conditions:”

human skin fibroblasts [9] = assay: Series of experiments on short-term effects on human skin fibroblasts, conclusion; format: cell-based; details: para at a dose of 40 μM
Procedure: as §1
The experiments were performed to determine the effects of short-term treatment of ortho-topolin, meta-topolin, and para-topolin on cell attachment, survival, growth, apoptosis, actin cytoskeletal pattern, lysosomal activity, proteasomal activity and morphology of human skin fibroblasts in culture.

human skin fibroblasts [10] = assay: beta-galactosidase staining of treated skin fibroblasts; format: cell-based; details: short-term growth treatment
[11] = system: lysosomes of fibroblast cells; assay: Lysosomal activity, neutral red uptake; format: cell-based, human
Procedure: Neutral Red is preferentially taken up into the lysosomes of the cell. Fibroblast cells are maintained in culture and exposed to test compounds over a range of concentrations. The cultures are visually examined after 72 hours, and the number of viable cells and/or the total cell protein content determined, after 72 hours exposure, by the Neutral Red Uptake method. Advantage of Neutral Red assay is that it detects only viable cells. Any chemical having a localized effect upon the lysosomes will, therefore, result in an artificially low (or possibly high) reflection of cell viability and cell number. This factor does, however, make the system useful to detect those compounds which selectively affect the lysosomes, especially when it is used in conjunction with other tests capable of determining cell number.
The NR assay has been applied to evaluation and ranking the cytotoxicity of a spectrum of compounds. Individual wells of a 96-well tissue culture microtiter plate were inoculated with 0.2 ml of the appropriate media containing cells (usually 3×10^3 cells). After 1 to 2 days of incubation, the media were removed and replaced with unamended (control) medium or with medium amended with varied concentrations of the compound to be tested. After 3 days of exposure to the compound, media were removed and replaced with media containing 0.001% NR. The assay plate was then returned to the incubator for another 3 h to allow for uptake of the supravital dye into the lysosomes of viable cells. Thereafter, the media were removed and the cells were rapidly washed with 0.5% formaldehyde-1% CaCl2 followed by 0.2 ml of a solution of 1% acetic acid-50% ethanol to extract the dye from the cells. After 10 min at room temperature and a brief but rapid agitation on a microtiter plate shaker, the plates were transferred to a microplate spectrophotometer equipped with a 540-nm filter to measure the absorbance of the extracted dye.
The toxicities of the various compounds were compared with those of the control cultures by computing the data obtained.

[12] = system: senescent human skin fibroblasts; assay: Morphology of senescent cells; format: cell-based
Procedure: as §1
Senescent human skin fibroblasts were treated with various doses of para-topolin to see if this treatment could reverse age-related alterations in their morphology. […] The cells progressively became heterogeneous with large and flattened appearance.

COc1cccc(CNc2ncnc3nc[nH]c23)c1O [6-(2-hydroxy-3-methoxybenzylamino)purine]
IC50 (B16-F0 melanoma): 69 µM
SENESCENT CELLS (%) HCA25 ([1]; passage 25): 4%
SENESCENT CELLS (%) HCA45 ([1]; passage 45): 3%
SENESCENT CELLS (%) HCA80 ([1]; passage 80): 20%
Activity (%) [10^−4 mol · l^−1 BAP = 100%] [2]: 34 (±5) %
apoptosis in MCF-7 tumour cells (MCF-7 cell line): induced apoptosis
activity (%) [10^−5 mol · l^−1 BAP = 100%] [3]: 19 (±3) %

Oc1ccc(CNc2ncnc3nc[nH]c23)cc1 [para-topolin, 6-(4-hydroxybenzylamino)purine]
actin staining pattern in senescent cells [4]: no obvious differences
proteasomal activity (chymotrypsin-like), removal of oxidized and abnormal proteins (proteasome): slight improvement; also recorded: observed in a dose dependent manner
reduction in cell survival (human skin fibroblasts [5]; 200-500 μM): 15-25%
dose until which not cytotoxic / no toxic effect on survival (MTT) (human skin fibroblasts [5]; range 0.01-500 μM): 100 µM
Cell growth (summary) ([6]; 40 μM): not affected
Cell growth lower ([6]; 40 μM): 10%
reduction of cell growth ([6]; 80 μM): over 40%
appearance of dermal cells, microscopic examination (summary) ([6]; 40 and 80 μM): Healthy appearances of the cells were maintained
Cell growth (summary) ([6]; 80, 200 and 500 μM): reduced
appearance of dermal cells, microscopic examination (summary) ([6]; 200 and 500 μM): toxic effects with enlargement in cell sizes
appearance of cells ([6]; 200 and 500 μM, eleven days): large in appearance, irregularly arranged and few in numbers
dose over which cytotoxicity of cells was seen ([6]; Giemsa pictures after eleven days): > 80 µM
Cellular growth at higher concentrations ([6]; para 200 to 500 μM after 11 days, ortho 200 and 400 μM after 7 days, meta 400 μM): almost a total inhibition
growth of senescent cells ([7]; 200 μM, 7 to 14 days): no further growth of the cells was observed
numbers of surviving senescent cells ([7]; 7 to 14 days of treatment): tolerant to para-topolin until 80 μM
Percent of cells attached, effect in words (human skin fibroblasts [8]; 6 hours, para 40 μM to 1 mM, ortho 40 to 400 μM, meta 40 to 200 μM): not affected to any significant extent
Overall cell attachment improved (summary) (human skin fibroblasts [8]; para at 40, 80, 100, 160, 250 and 500 μM): 10-40%
conclusion on short-term effects on human skin fibroblasts (human skin fibroblasts [9]): beneficial anti-aging effects
number of prematurely senescent cells, beta-galactosidase staining (human skin fibroblasts [10]): did not show any increase
neutral red staining pattern of cells ([11]; 40 μM-500 μM): autophagy
reduction in the macro-molecular turn over rate ([11]; 80 & 200 μM): 10-15%
appearance of senescent cells on longer treatment ([12]; 14 days, ortho and meta 80 μM and above): began to shrink and die
appearance of senescent cells ([12]; after 7 days of treatment (para: 7 days and 14 days; meta: low concentrations)): subtle differences

Reference: US8552013B2, “Heterocyclic compounds based on N6-substituted adenine, methods of their preparation, their use for preparation of drugs, cosmetic preparations and growth regulators, pharmaceutical preparations, cosmetic preparations and growth regulators containing these compounds” (USTAV Experimentalni Botaniky Akademie Ved Ceske Republiky, priority 2001, dated 2013)
